# Patent US8865705B2, “Benzimidazole respiratory syncytial virus inhibitors” (Janssen R&D Ireland, priority 2010, dated 2014)
# Like-named read-outs stand apart in the source and are kept apart here.
# What was measured:
# HeLa cells = test: Cytotoxicity in HeLa cells by ATP content (ATPlite kit); assay type: cell-based
# Procedure: (§1) Black 96-well clear-bottom microtiter plates (Corning, Amsterdam, The Netherlands) were filled in duplicate using a customized robot system with serial 4-fold dilutions of compound in a final volume of 50 μl culture medium [RPMI medium without phenol red, 10% FBS, 0.04% gentamycin (50 mg/mL) and 0.5% DMSO]. Then, 100 μl of a HeLa cell suspension (5×10^4 cells/mL) in culture medium was added to each well followed by the addition of 50 μl rgRSV224 (MOI=0.02) virus in culture medium using a multidrop dispenser (Thermo Scientific, Erembodegem, Belgium). rgRSV224 virus is an engineered virus that includes an additional GFP gene (Hallak et al, 2000) and was in-licensed from the NIH (Bethesda, Md., USA). Medium, virus- and mock-infected controls were included in each test. Cells were incubated at 37° C. in a 5% CO2 atmosphere. Three days post-virus exposure, viral replication was quantified by measuring GFP expression in the cells by a MSM laser microscope (Tibotec, Beerse, Belgium). The EC50 was defined as the 50% inhibitory concentration for GFP expression. In parallel, compounds were incubated for three days in a set of white 96-well microtitier plates (Corning) and the cytotoxicity of compounds in HeLa cells was determined by measuring the ATP content of the cells using the ATPlite kit (PerkinElmer, Zaventem, Belgium) according to the manufacturer's instructions. The CC50 was defined as the 50% concentration for cytotoxicity.
# rgRSV224 virus = test: microbe, parasite or virus in culture; assay type: cell-based, respiratory syncytial virus (RSV); conditions: for EC50: read-out: WT activity EC50; for SI CC50/EC50: selectivity index, CC50 (HeLa cytotoxicity) over EC50 (rgRSV224)
# Procedure: as §1, with “The EC50 was defined as the 50% inhibitory concentration for GFP expression.” left out, “instructions.” for “instructions. The CC50 was defined as the 50% concentration for cytotoxicity.”
# [1] = Table 1, rgRSV224 in HeLa cells, GFP expression three days post-virus exposure
# [2] = Table 2, rgRSV224 in HeLa cells, GFP expression three days post-virus exposure
# [3] = human respiratory syncytial virus, HeLa, 72 h
Compound,EC50 (rgRSV224 virus; [2]),SI CC50/EC50 (rgRSV224 virus; Table 2),further results
O=c1n(Cc2nc3cc(Br)ccc3n2CCCCF)c2cnccc2n1C1CC1 [P1],–,–,"CC50 (HeLa cells; Table 1, HeLa cells, three days, ATP content, read-out: Tox CC50): > 9840 nM; EC50 (rgRSV224 virus; [1]): 0.033 nM"
CS(=O)(=O)CCCn1c(Cn2c(=O)n(C3CC3)c3ccc(F)cc32)nc2cc(Br)ccc21 [P3],–,–,CC50 (HeLa cells): > 9840 nM; EC50 (rgRSV224 virus; [1]): 0.47 nM
CS(=O)(=O)NCCCCn1c(Cn2c(=O)n(C3CC3)c3ccncc32)nc2cc(Br)ccc21 [P5],–,–,CC50 (HeLa cells): > 101000 nM; EC50 (rgRSV224 virus; [1]): < 0.15 nM
CS(=O)(=O)CCCn1c(Cn2c(=O)n(C3CC3)c3ccncc32)nc2cc(Cl)ccc21 [P6],–,–,CC50 (HeLa cells): > 9840 nM; EC50 (rgRSV224 virus; [1]): < 0.15 nM
CC(C)CCn1c(Cn2c(=O)n(C3CC3)c3ccc(F)cc32)nc2cc(Cl)ccc21 [P28],2.32 nM,14563,–
O=c1n(Cc2nc3cc(Cl)ccc3n2CCCCF)c2cnccc2n1C1CC1 [P31],0.19 nM,>267110,–
CC(C)CCn1c(Cn2c(=O)n(C3CC3)c3ccc(F)cc32)nc2cc(Br)ccc21 [P32],2.53 nM,25508,–
"CC(C)(C)OC(=O)Cn1c(=O)n(Cc2nc3cc(Cl)ccc3n2CCCCF)c2cnccc21 [P33, tert-butyl (3-{[5-chloro-1-(4-fluorobutyl)-1H-benzimidazol-2-yl]methyl}-2-oxo-2,3-dihydro-1H-imidazo[4,5-c]pyridin-1-yl)acetate]",–,>49120,EC50 (rgRSV224 virus; [3]): 1.9 nM
"CS(=O)(=O)n1c(=O)n(Cc2nc3cc(Cl)ccc3n2CCCCF)c2cnccc21 [P34, 3-((5-chloro-1-(4-fluorobutyl)-1H-benzo[d]imidazol-2-yl)methyl)-1-(methylsulfonyl)-1H-imidazo[4,5-c]pyridin-2(3H)-one]",–,>1 048 580,EC50 (rgRSV224 virus; [3]): 0.09 nM
CC(C)CCn1c(Cn2c(=O)n(C3CC3)c3ccccc32)nc2cc(Cl)ccc21 [P35],2.63 nM,33466,–
O=C(CCCn1c(Cn2c(=O)n(C3CC3)c3ccncc32)nc2cc(Br)ccc21)NCCS(=O)(=O)n1ccnc1 [P38],0.22 nM,>445390,–
O=c1n(Cc2nc3cc(Cl)ccc3n2CCCCF)c2cnccc2n1CC(F)F [P40],0.048 nM,2000000,–
O=c1n(Cc2ccc(F)cc2)c2ccncc2n1Cc1nc2cc(Cl)ccc2n1CCCCF [P41],0.16 nM,503466,–
O=c1n(Cc2nc3cc(Cl)ccc3n2CCCNc2ncccn2)c2cnccc2n1C1CC1 [P44],0.3 nM,302162,–
"O=C(O)CCCn1c(Cn2c(=O)n(C3CC3)c3ccncc32)nc2cc(Cl)ccc21 [P45, 4-(5-chloro-2-((1-cyclopropyl-2-oxo-1H-imidazo[4,5-c]pyridin-3(2H)-yl)methyl)-1H-benzo[d]imidazol-1-yl)butanoic acid]",–,D. >19412,EC50 (rgRSV224 virus; [3]): 5.15 nM
O=C1c2ccccc2C(=O)N1CCCCn1c(Cn2c(=O)n(C3CC3)c3ccncc32)nc2cc(Cl)ccc21 [P46],0.57 nM,>44185,–
O=c1n(Cc2nc3cc(Cl)ccc3n2CCCCc2ccccn2)c2cnccc2n1C1CC1 [P47],0.76 nM,84254,–
"O=C(CCCn1c(Cn2c(=O)n(C3CC3)c3ccncc32)nc2cc(Br)ccc21)N1CCOCC1 [P48, 3-((5-bromo-1-(4-morpholino-4-oxobutyl)-1H-benzo[d]imidazol-2-yl)-methyl)-1-cyclopropyl-1H-imidazo[4,5-c]pyridin-2(3H)-one]",–,>102584,EC50 (rgRSV224 virus; [3]): 0.97 nM
"O=C(CCCn1c(Cn2c(=O)n(C3CC3)c3ccncc32)nc2cc(Cl)ccc21)NS(=O)(=O)C1CC1 [P49, 4-(5-chloro-2-((1-cyclopropyl-2-oxo-1H-imidazo[4,5-c]pyridin-3 (2H)-yl)methyl)-1H-benzo[d]imidazol-1-yl)-N-(cyclopropylsulfonyl)butanamide]",–,>55412,EC50 (rgRSV224 virus; [3]): 1.8 nM
O=c1n(Cc2nc3cc(Cl)ccc3n2CCCc2ccccc2)c2cnccc2n1C1CC1 [P50],0.23 nM,93799,–
"O=c1n(Cc2nc3cc(Cl)ccc3n2CCCn2ccnc2)c2cnccc2n1C1CC1 [P51, 3-({5-chloro-1-[3-(1H-imidazol-1-yl)propyl]-1H-benzimidazol-2-yl}methyl)-1-cyclopropyl-1,3-dihydro-2H-imidazo[4,5-c]pyridin-2-one]",–,>401504,EC50 (rgRSV224 virus; [3]): 0.25 nM

Compound,EC50 (rgRSV224 virus; [2]),SI CC50/EC50 (rgRSV224 virus; Table 2),further results
CC(C)(C)OC(=O)CCCn1c(Cn2c(=O)n(C3CC3)c3ccncc32)nc2cc(Cl)ccc21 [P52],0.55 nM,70937,–
O=c1n(Cc2nc3cc(Cl)ccc3n2CCCC(F)(F)F)c2cc(F)ccc2n1C1CC1 [P58],0.49 nM,104559,–
"CN(C(=O)CCCn1c(Cn2c(=O)n(C3CC3)c3ccncc32)nc2cc(Cl)ccc21)S(=O)(=O)C1CC1 [P59, 4-(5-chloro-2-((1-cyclopropyl-2-oxo-1H-imidazo[4,5-c]pyridin-3(2H)-yl)methyl)-1H-benzo[d]imidazol-1-yl)-N-(cyclopropylsulfonyl)-N-methylbutanamide]",–,>604770,EC50 (rgRSV224 virus; [3]): 0.17 nM
CC(C)(C)OC(=O)Cn1c(=O)n(Cc2nc3cc(Cl)ccc3n2CCCC(F)(F)F)c2cnccc21 [P60],1.68 nM,>59486,–
O=C(CCn1c(Cn2c(=O)n(C3CC3)c3ccc(F)cc32)nc2cc(Cl)ccc21)N1CCOCC1 [P62],1.36 nM,>73334,–
O=C(CCCn1c(Cn2c(=O)n(C3CC3)c3ccncc32)nc2cc(Cl)ccc21)N1CCOCC1 [P63],1 nM,>98994,–
O=C(CCn1c(Cn2c(=O)n(C3CC3)c3ccncc32)nc2cc(Cl)ccc21)N1CCOCC1 [P64],1.45 nM,>68795,–
N#CCCCn1c(Cn2c(=O)n(C3CC3)c3ccccc32)nc2cc(Cl)ccc21 [P70],0.631 nM,>159787,–
CN(C)C(=O)Cn1c(=O)n(Cc2nc3cc(Cl)ccc3n2CCCCF)c2cnccc21 [P71],2.5 nM,>39781,–
N#CCCCn1c(Cn2c(=O)n(C3CC3)c3ccc(F)cc32)nc2cc(Cl)ccc21 [P73],1.58 nM,23633,–
O=C(CCCn1c(Cn2c(=O)n(C3CC3)c3ccncc32)nc2cc(Br)ccc21)N1CCCCS1(=O)=O [P74],1.18 nM,>84529,–
O=C(CCCn1c(Cn2c(=O)n(C3CC3)c3ccncc32)nc2cc(Br)ccc21)N1CCCS1(=O)=O [P75],0.2 nM,>444590,–
"NS(=O)(=O)NC(=O)CCCn1c(Cn2c(=O)n(C3CC3)c3ccncc32)nc2cc(Br)ccc21 [P76, 4-(5-bromo-2-((1-cyclopropyl-2-oxo-1H-imidazo[4,5-c]pyridin-3(2H)-yl)methyl)-1H-benzo[d]imidazol-1-yl)-N-sulfamoylbutanamide]",–,>214887,EC50 (rgRSV224 virus; [3]): 0.47 nM
CCCS(=O)(=O)NC(=O)CCCn1c(Cn2c(=O)n(C3CC3)c3ccncc32)nc2cc(Br)ccc21 [P78],1.73 nM,>57893,–
CN(C(=O)CCCn1c(Cn2c(=O)n(C3CC3)c3ccncc32)nc2cc(Br)ccc21)S(C)(=O)=O [P79],0.56 nM,>177178,–
CS(=O)(=O)NC(=O)CCCn1c(Cn2c(=O)n(C3CC3)c3ccncc32)nc2cc(Br)ccc21 [P80],1 nM,>99444,–
CCCCS(=O)(=O)NC(=O)CCCn1c(Cn2c(=O)n(C3CC3)c3ccncc32)nc2cc(Br)ccc21 [P81],7.25 nM,>13798,–
NC(=O)CCCn1c(Cn2c(=O)n(C3CC3)c3ccncc32)nc2cc(Br)ccc21 [P82],0.58 nM,>85761,–
CNC(=O)CCCn1c(Cn2c(=O)n(C3CC3)c3ccncc32)nc2cc(Br)ccc21 [P83],0.9 nM,>111709,–
"CS(=O)(=O)CCCn1c(Cn2c(=O)n(C3CC3)c3ccncc32)nc2ccccc21 [Ref1, reference compound]",2.5 nM,>4315,–
"O=c1n(Cc2nc3ccccc3n2CCCCO)c2cnccc2n1C1CC1 [Ref2, reference compound]",3.98 nM,–,–
